Assay results published in BindingDB's records for patent US11066409 (Shionogi, 2021).

Target: T1, P2X purinoceptor 7 [R270H] (Homo sapiens, UniProt Q99572, R270H)
T1 construct: gene P2RX7
Test: Inhibition Assay
Procedure: Evaluation of a human P2X7 receptor inhibitory activity Stably expressing cell line (1321N1 cell transfected with the human P2X7 receptor gene (GenBank accession number NM_002562.5 including T606C and G952A SNP)) was used. The cells were seeded in a 384-well microtiter plate at a concentration of 8000 cells/well and cultured in the medium (10% fetal bovine serum, 25 mM HEPES, 1% penicillin and streptomycin in DMEM) for one day at 37° C. under 5% carbon dioxide atmosphere. After replacing with 20 μL of the HBSS buffer (20 mM HEPES, 55.6 mM D-glucose, 1× HBSS(−), pH7.4-7.5), 15 μL of 17.3 μM Yo-Pro solution in the HBSS buffer was added. The plate was placed in high-throughput cellular screening system FLIPR TETRA (Molecullar Devices, LLC.) and 15 μL of 130 μM BzATP solution in the HBSS buffer was added. Measurement of fluorescence intensity by FLIPR TETRA was started. After eight minutes, 15 μL of DMSO solutions containing different concentrations of the compound of the present invention as prepared by dilution with the HBSS buffer were dispensed to each well through the built-in automatic dispenser, and the measurement of fluorescence intensity was continued for 20 minutes. The maximum fluorescence intensity without the compound of the present invention is calculated as 0% inhibition and the maximum fluorescence intensity when the reference compound was added is calculated as 100% inhibition.

T1 sequence (Q99572 whole entry R270H, looked up): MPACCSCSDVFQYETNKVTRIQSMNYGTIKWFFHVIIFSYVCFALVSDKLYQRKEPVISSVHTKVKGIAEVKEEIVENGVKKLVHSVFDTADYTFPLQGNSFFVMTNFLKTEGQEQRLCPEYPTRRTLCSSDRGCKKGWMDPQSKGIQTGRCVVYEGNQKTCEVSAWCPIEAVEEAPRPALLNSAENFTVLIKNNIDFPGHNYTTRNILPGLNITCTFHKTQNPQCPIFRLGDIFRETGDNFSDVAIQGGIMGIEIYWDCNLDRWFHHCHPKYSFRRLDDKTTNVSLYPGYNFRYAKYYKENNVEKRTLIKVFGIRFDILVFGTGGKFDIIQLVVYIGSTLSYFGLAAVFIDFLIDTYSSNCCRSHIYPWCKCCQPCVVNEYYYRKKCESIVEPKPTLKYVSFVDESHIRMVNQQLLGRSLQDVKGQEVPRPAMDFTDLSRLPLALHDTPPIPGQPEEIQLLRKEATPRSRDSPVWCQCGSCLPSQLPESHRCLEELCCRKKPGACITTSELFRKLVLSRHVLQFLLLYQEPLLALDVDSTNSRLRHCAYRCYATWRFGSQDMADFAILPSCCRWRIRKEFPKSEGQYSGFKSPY

Compound	IC50 [µM]
COc1cc(Nc2nc(=O)c(F)c3n2C(c2cc(F)cc(F)c2)CC3)c(C)cc1F (stereo not drawn) [US11066409, Compound I-0099]	< 0.01
Cc1cc(F)c(CO)cc1NC1=NC(=O)N(C)C2=NCC(c3cc(F)c(F)c(F)c3)N12 (stereo not drawn) [US11066409, Compound I-0168]	0.023
Cc1ccc(OCCO)cc1NC1=NC(=O)N(C)C2=NCC(c3cc(F)c(F)c(F)c3)N12 (stereo not drawn) [US11066409, Compound I-0171]	0.019
